One series in a line: HLM stability. The series is classed as in vitro ADME. The note with it: for HLM HL: HLM half-life; for microsomal CLint: human, liver microsomes, HLM clearance, read-out: HLM Cl.
The target in series [1] is T1, human CB1 (Homo sapiens, UniProt P21554).
T1 construct: expressed in transfected cells; host or cells: CHO cells co-expressing Gqα16
Briefly: radioligand displacement assay using [3H]CP55940 in CHO cell membrane preparations. The series is classed as binding. The note with it: [3H]CP55940 displacement, CHO cell membranes overexpressing human CB1; read-out: Ki hCB1. From the text: (§1) See Ki values above, based on radioligand displacement assay using ^3H-CP55940, a synthetic cannabinoid, (−)-cis-3-[2-hydroxy-4-(1,1-dimethylheptyl)phenyl]-trans-4-(3-hydroxypropyl)cyclohexanol, which is a compound commonly used to study the endocannabinoid system.

The target in series [2] is T1, human CB1. The series can be described thus: functional fluorescent calcium mobilization assay, antagonism of CP55,940 (Ke). The series is classed as cell-based. As to conditions: for Kd: apparent equilibrium dissociation constant, CHO cells expressing human CB1 along with Gqα16, agonist CP55,940, read-out: Ke hCB1. As for the experimental part: A functional fluorescent calcium mobilization was performed in CHO cells expressing human CB1 along with Gqα16. In FIG. 1A, a concentration-dependent increase in fluorescence upon treatment with the CB1 agonist CP55,940 is shown (solid line/triangle markers). […] The EC50 values in the presence and absence of the antagonist are used to calculate antagonist apparent equilibrium dissociation constant (Ke). Suppression of basal signaling in the absence of any stimulation/agonism was measured using the same approach. […] Provided data are representative of a minimum of three experiments and were fitted using non-linear regression analyses in GraphPad Prism.

Another series addresses human CB2 (Homo sapiens, UniProt P34972). The series can be described thus: radioligand displacement assay using [3H]CP55940 in CHO cell membrane preparations (CB2, for selectivity). The class given is binding. The note with it: ratio of Ki human CB2 / human CB1.
Description: as §1

A further series deals with C57BL6 male mice. The series can be described thus: THC drug discrimination model. The series is classed as in vivo. From the text:
Drug discrimination is a behavioral model of the interoceptive effects of a compound. This pharmacologically selective model has high predictive validity, producing a strong correlation between drugs that have sharing discriminative stimulus properties in animals and drugs that humans identify as having similar subjective effects. FIG. 3 provides the results of this study, in which C57BL6 male mice (n=8) were trained to discriminate the reference drug (THC) using a discrimination procedure similar to that described in Wiley et al., Neuropharmacology 75, 145-154 (2013), Van et al., Eur. J. Pharmacol. 615, 102-107, and Wiley et al., J. Pharmacol. Exp. Ther. 354, 328-339 (2015), which are incorporated herein by reference in their entireties. For each session, the percentage of responses on the drug-associated lever and response rate response(s) were calculated.

A further series addresses T2, CB1 receptor (Mus musculus, UniProt P47746).
T2 construct: from tissue; host or cells: brain of living B6 mice (in vivo PET)
The series can be described thus: PET target engagement with CB1 radiotracer 11C-JHU75528. The note with it: male and female B6 mice, IP pretreatment. The class given is in vivo. As for the experimental part: FIG. 5A provides a representative image of target specificity of Compound 3 for the CB1 receptor in mice along with quantification. […] The well-characterized CB1 radiotracer ^11C-JHU75528 was used for this purpose. A baseline response for each animal (2 male and 2 female mice) was first established using the vehicle and tracer (~10 MBq in 0.1-0.15 ml volume, tail vein catheter). Following a 48-hr washout, animals were administered Compound 3 via intraperitoneal (IP) injection followed by the probe. PET image acquisition by dynamic scanning was performed for 65 min after the second injection with energy window of 350-700 KeV. […] The PET images were normalized to the standardized uptake value (SUV) unit. Two-tissue compartmental model was applied using the PKIN module in PMOD 4.0 software. See, e.g., FIG. 5B, where quantification of the signal confirmed a blocking effect on cerebral uptake. Compound 3 blocked ^11C-JHU75528 uptake, confirming in vivo activity.

For series [3], the target named is T1, human CB1. The series can be described thus: suppression of basal signaling in fluorescent calcium mobilization assay (inverse agonism). The series is classed as cell-based. As to the method:
A functional fluorescent calcium mobilization was performed in CHO cells expressing human CB1 along with Gqα16. […] The EC50 values in the presence and absence of the antagonist are used to calculate antagonist apparent equilibrium dissociation constant (Ke). Suppression of basal signaling in the absence of any stimulation/agonism was measured using the same approach. […] Provided data are representative of a minimum of three experiments and were fitted using non-linear regression analyses in GraphPad Prism.

For the next series, the system named is male C57BL/6J mice. The series can be described thus: reversal of diet-induced obesity (DIO) in mice. The note with it: oral, 1x daily, 5 days per week. The series is classed as in vivo. As to the method: Preconditioned male C57BL/6J mice were purchased from the Jackson Laboratories (Bar Harbor, Maine) at 18 weeks of age. These animals were maintained either on ad libitum standard diet (SD) with 10% fat (D12450B) or on 60% high fat diet (HFD; D12492) from Research Diets (New Brunswick, NJ.) Animals were dosed by intragastric gavage once daily Monday-Friday (5 days per week) with either vehicle (0.5% sodium carboxymethylcellulose with 1% NMP and 0.3% Tween 80 in de-ionized water) or Compound 3 suspended in the vehicle. Body weights were recorded at regular intervals. Organs were removed and processed as has been described in the legend of FIG. 4. Biomarkers of efficacy were measured including circulating enzymes, liver weight and liver adiposity as indicated.
Data were reported as mean (FIG. 4A) or mean and range (FIGS. 4B and 4C). […] Hepatic statosis was reduced, as assessed using Oil Red O staining (FIG. 4G), with representative images shown as FIGS. 4H, 4I, and 4J. Significance was calculated using ANOVA with Fisher's test (p<0.05*, 0.01**, 0.001***, 0.0001****).

Each structure is given as a SMILES string.

The values that follow come from patent US20260200924A1, “CANNABINOID RECEPTOR 1 ANTAGONISTS AND USES” (RESEARCH TRIANGLE INSTITUTE, priority 2022, published 2026).

Chain of human CB2 (P34972 whole entry): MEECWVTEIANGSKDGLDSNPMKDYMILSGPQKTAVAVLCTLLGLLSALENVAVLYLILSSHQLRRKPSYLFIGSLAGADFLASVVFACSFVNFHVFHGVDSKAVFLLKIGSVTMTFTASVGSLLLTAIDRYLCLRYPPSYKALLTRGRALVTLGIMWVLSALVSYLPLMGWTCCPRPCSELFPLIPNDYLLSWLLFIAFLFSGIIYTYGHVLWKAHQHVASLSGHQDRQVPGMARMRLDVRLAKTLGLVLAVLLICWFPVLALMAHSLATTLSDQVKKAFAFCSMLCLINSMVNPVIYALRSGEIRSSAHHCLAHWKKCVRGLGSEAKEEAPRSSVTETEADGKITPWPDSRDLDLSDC
T1 sequence (P21554 whole entry): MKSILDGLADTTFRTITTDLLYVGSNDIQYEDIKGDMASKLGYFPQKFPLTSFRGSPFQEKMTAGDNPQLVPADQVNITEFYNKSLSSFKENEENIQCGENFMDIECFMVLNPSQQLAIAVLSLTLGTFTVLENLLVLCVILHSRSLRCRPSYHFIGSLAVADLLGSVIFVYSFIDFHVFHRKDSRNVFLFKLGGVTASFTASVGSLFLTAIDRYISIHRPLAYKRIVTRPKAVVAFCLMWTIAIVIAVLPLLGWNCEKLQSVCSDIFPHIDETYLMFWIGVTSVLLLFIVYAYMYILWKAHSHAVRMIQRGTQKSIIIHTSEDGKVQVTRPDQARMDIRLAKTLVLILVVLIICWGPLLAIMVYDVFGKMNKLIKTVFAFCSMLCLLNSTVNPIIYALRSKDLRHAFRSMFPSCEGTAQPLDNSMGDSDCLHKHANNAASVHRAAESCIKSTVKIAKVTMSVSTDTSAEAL
T2 sequence (P47746 whole entry): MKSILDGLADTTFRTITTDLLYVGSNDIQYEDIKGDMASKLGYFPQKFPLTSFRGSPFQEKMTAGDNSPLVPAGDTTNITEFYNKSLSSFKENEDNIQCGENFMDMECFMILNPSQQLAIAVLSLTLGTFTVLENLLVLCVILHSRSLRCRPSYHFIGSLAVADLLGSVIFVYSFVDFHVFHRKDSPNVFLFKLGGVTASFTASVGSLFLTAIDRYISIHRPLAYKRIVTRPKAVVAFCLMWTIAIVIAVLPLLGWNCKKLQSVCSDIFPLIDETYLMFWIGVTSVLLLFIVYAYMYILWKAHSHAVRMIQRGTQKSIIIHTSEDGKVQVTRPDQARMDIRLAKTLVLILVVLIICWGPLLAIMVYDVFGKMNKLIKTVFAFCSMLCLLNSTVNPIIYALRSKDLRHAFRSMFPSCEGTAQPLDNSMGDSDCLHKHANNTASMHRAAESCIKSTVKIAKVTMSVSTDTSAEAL

In the case of `O=C(Cc1ccccc1F)NC1CCN(c2ncnc3c2nc(-c2ccccc2Cl)n3-c2ccc(Cl)cc2)CC1` [Compound 1, N-{1-[8-(2-Chlorophenyl)-9-(4-chlorophenyl)-9H-purin-6-yl]piperidin-4-yl}-2-(2-fluorophenyl)acetamide], in “HLM stability”, the “HLM HL” value came to 146 min and the microsomal CLint stood at 9 µL/min/mg. In addition, the Ki at human CB1 [1] turned out to be 1.5 nM. Moreover, the Kd at human CB1 [2] was 1 nM. In addition, the “Selectivity Ki (CB2/CB1)” value on human CB2 was 110.

As to `O=C(Cc1ccc(F)cc1)NC1CCN(c2ncnc3c2nc(-c2ccccc2Cl)n3-c2ccc(Cl)cc2)CC1` [Compound 2, N-{1-[8-(2-Chlorophenyl)-9-(4-chlorophenyl)-9H-purin-6-yl]piperidin-4-yl}-2-(4-fluorophenyl)acetamide], in the series “HLM stability”, the “HLM HL” value was determined as 150 min and the microsomal CLint amounted to 8 µL/min/mg. The Ki at human CB1 [1] stood at 1.4 nM. In addition, on human CB1 [2], the Kd is 1 nM. Further, the “Selectivity Ki (CB2/CB1)” value at human CB2 turned out to be 210.

On to `O=C(Cc1ccc(F)cc1F)NC1CCN(c2ncnc3c2nc(-c2ccccc2Cl)n3-c2ccc(Cl)cc2)CC1` [Compound 3, N-{1-[8-(2-Chlorophenyl)-9-(4-chlorophenyl)-9H-purin-6-yl]piperidin-4-yl}-2-(2,4-difluorophenyl)acetamide], for which, in “HLM stability”, the “HLM HL” value is given as 133 min and the microsomal CLint came out at 9 µL/min/mg. Further, the response rates entry in the series on C57BL6 male mice (compared to controls) was “not significantly altered”. The “maximum inhibition of THC drug discrimination” value with C57BL6 male mice (compared with rimonabant) was “comparable to that of rimonabant”. Further, the THC drug discrimination result in the series on C57BL6 male mice (mice trained on 5.6 mpk THC, 3, 5.6 and 10 mpk antagonist) is given as “antagonize”. Also, the Ki at human CB1 [1] was found to be 1.1 nM. At CB1 receptor, the “11C-JHU75528 cerebral uptake (PET)” value is “blocked”. Moreover, the “effect on basal signaling (inverse agonism)” value at human CB1 [3] (absence of any stimulation/agonism) is “partial inverse agonist”. Further, the Emax at human CB1 [3] (read-out: partial suppression of maximal response (basal signaling), % of rimonabant Emax) is roughly 30%. Moreover, in the series with male C57BL/6J mice, the body weight result was “significantly reduced”, the “circulating transaminase ALT” value is given as “reduce”, the “circulating transaminase AST” value is on record as “reduce” and the hepatic cholesterol content result is given as “decrease”. Besides, the “hepatic steatosis (Oil Red O staining)” value in the series on male C57BL/6J mice is “reduced”. In addition, in the series with male C57BL/6J mice (normalized to tibia length), the epididymal adipose weight entry is “significantly reduced” and the liver weight entry is “significantly reduced”. In addition, the Kd at human CB1 [2] amounted to 0.8 nM. In addition, the “antagonism: shift of the CP55,940 curve” value at human CB1 [2] (pre-incubation with antagonist) was “rightward shift”. Also, the “Selectivity Ki (CB2/CB1)” value on human CB2 is 510.

For the compound `CC1(NC(=O)Cc2ccccc2F)CCN(c2ncnc3c2nc(-c2ccccc2Cl)n3-c2ccc(Cl)cc2)CC1` [Compound 4, N-{1-[8-(2-Chlorophenyl)-9-(4-chlorophenyl)-9H-purin-6-yl]-4-methylpiperidin-4-yl}-2-(2-fluorophenyl)acetamide], the Kd at human CB1 [2] turned out to be 3.8 nM.

As to `CC1(NC(=O)Cc2ccc(F)cc2)CCN(c2ncnc3c2nc(-c2ccccc2Cl)n3-c2ccc(Cl)cc2)CC1` [Compound 5, N-{1-[8-(2-Chlorophenyl)-9-(4-chlorophenyl)-9H-purin-6-yl]-4-methylpiperidin-4-yl}-2-(4-fluorophenyl)acetamide], the Kd on human CB1 [2] stood at 1.8 nM.
